From patent US5716949A, “Heterocyclic compounds” (Novo Nordisk A/S, priority 1995, dated 1998)
Counter-ions that a name gives are not always drawn.

Assay: Inhibition of formalin induced pain response in mice
Assay type: in vivo, mouse (NMRI female mice)
Settings: 0.1 mg/kg, 1% formalin into left hind paw
Procedure: Compounds of formula I may be used to treat all painful, hyperalgesic and/or inflammatory conditions in which C-fibers play a pathophysiological role by eliciting neurogenic pain or inflammation, i.e.: Formalin induced pain or paw oedema […] About 20 g NMRI female mice were injected […] 1% formalin into the left hind paw. The animals were then placed on a heated (31° C.) table, and the pain response was scored. After 1 h they were killed and bled. Left and right hind paws were removed and the weight difference between the paws was used as indication of the oedema response of the formalin injected paw. Values for inhibition of formalin induced pain response for some representative compounds are recorded in table 1.

| Compound | % Pain inhibition (inhibition of formalin induced pain response) [%] |
| --- | --- |
| Cl.O=C1Cc2ccccc2N(CCCN2CCC[C@@H](C(=O)O)C2)c2ccccc21 [Example 1, (R)-1-(3-(10-Oxo-10,11-dihydro-5H-dibenz[b,f]azepin-5-yl)-1-propyl)-3-piperidinecarboxylic acid hydrochloride] | 21 |
| O=C(O)[C@@H]1CCCN(CCC=C2c3ccccc3CSc3ccccc32)C1 [Example 3, (R)-1-(3-(6,11-Dihydro-dibenz[b,e]thiepin-11-yl)-1-propylidene)-3-piperidinecarboxylic acid hydrochloride] | 31 |
